Measurements taken from patent publication US4333941A, “Inhibition of enveloped viruses with phenyl ketones” (The Dow Chemical Company, priority 1977, dated 1982).
Counter-ions that a name gives are not always drawn. Like-named read-outs stand apart in the source and are kept apart here.

Experiments:
[1] = tested on: HSV-1; assay: Inactivation of HSV-1, plaque assay on Vero or HeLa cells (Example 1); assay type: cell-based, herpes simplex virus type I; conditions: Human alphaherpesvirus 1, 1 h, one hour at 37° C., versus water control, read-out: Concentration Producing 50% Virus Inhibition
[2] = tested on: VSV (vesicular stomatitis virus); assay: microbe, parasite or virus in culture; assay type: cell-based; conditions: 1 h
[3] = tested on: HSV-1; assay: Inactivation of HSV-1 (Example 2); assay type: cell-based, herpes simplex virus type I; conditions: Human alphaherpesvirus 1, 1 h
[4] = tested on: SFV (semliki forest virus); assay: Inactivation of SFV (Example 2); assay type: cell-based; conditions: 1 h, one hour exposure, read-out: concentration for fifty percent inactivation
[5] = tested on: influenza; assay: Inactivation of influenza virus (Example 2); assay type: cell-based; conditions: unidentified influenza virus, 1 h
[6] = tested on: NDV (Newcastle's disease virus); assay: organism not typed; assay type: cell-based; conditions: 1 h, read-out: concentration for fifty percent inactivation
[7] = tested on: rhinovirus; assay: Inactivation of rhinovirus (Example 2); assay type: cell-based
[8] = tested on: poliovirus; assay type: cell-based; conditions: poliovirus (picorna viruses)
[9] = tested on: vaccinia virus; assay: microbe, parasite or virus in culture; assay type: cell-based; conditions: Orthopoxvirus vaccinia, 1 h, read-out: concentration for 50 percent inactivation
[10] = tested on: HSV-1; conditions: guinea pig, in vivo
[11] = tested on: HSV-2; conditions: guinea pig, in vivo
[12] = tested on: mice; conditions: cited from earlier work
[13] = tested on: HSV-2; assay: Inactivation of one strain of HSV-2 (Example 3); conditions: Human alphaherpesvirus 2, 1 h, read-out: concentration for ninety nine percent inactivation
[14] = tested on: HSV-1; assay: Inactivation of two strains of HSV-1 (Example 3); conditions: Human alphaherpesvirus 1, 1 h, read-out: concentration for ninety nine percent inactivation
[15] = tested on: HSV-1, Stohr strain; assay: In vivo treatment of HSV-1 skin infection in guinea pigs (Example 5); conditions: 2 percent in 5 percent ethanol, topical hourly
[16] = tested on: HSV-2; assay: In vivo treatment of genital cutaneous mucosa infected with HSV-2 (Example 8); conditions: all the animals, including placebo and control
[17] = read-out: concentration for fifty percent inactivation

CCCCOc1ccc(C(=O)CCN2CCOCC2)cc1
IC50 [1]: 125 µM

CCCCOc1ccc(C(=O)C(C)C[N+]2(C)CCCCC2)cc1 (stereo not drawn) [1-[2-(4-butoxybenzoyl)-2-methylethyl]-1-methyl-piperidinium iodide]
IC50 [1]: > 750 µM

CCCCOc1ccc(C(=O)CC[N+]2(C)CCCCC2)cc1 [1-[2-(4-butoxybenzoyl)-ethyl]-1-methyl piperidinium iodide]
IC50 [1]: < 125 µM

O=C(CCN1CCCCC1)c1ccc(Cl)c(Cl)c1 [3',4'-Dichloro-3-piperidino-propiophenone . HCl]
IC50 [1]: < 125 µM

O=C(CCN1CCCCC1)c1cccc(Cl)c1 [3'-Chloro-3-piperidino-propiophenone . HCl]
IC50 [1]: 125 µM

CC(=O)C(CN1CCCCC1)c1ccccc1 (stereo not drawn) [3-Phenyl-4-piperidino-2-butanone . HCl]
IC50 [1]: 550 µM

CCCCOc1ccc(C(=O)CCN(CC)CC)cc1 [4'-Butoxy-3-diethylamino-propiophenone . HCl]
IC50 [1]: < 125 µM

CCOc1ccc(C(=O)CCN2CCCCC2)cc1 [4'-Ethoxy-3-piperidino-propiophenone . HCl]
IC50 [1]: 1500 µM

CCCCCCOc1ccc(C(=O)CCN2CCCCC2)cc1 [4'-Hexyloxy-3-piperidino-propiophenone . HCl]
IC50 [1]: < 125 µM

CC(C)COc1ccc(C(=O)CCN2CCCCC2)cc1 [4'-Isobutoxy-3-piperidino-propiophenone . HCl]
IC50 [1]: 200 µM

CCCOc1ccc(C(=O)CCN2CCCCC2)cc1 [4'-Propoxy-3-piperidino-propiophenone . HCl]
IC50 [1]: 400 µM

CCCCCCCCCCOc1ccc(C(=O)CCN2CCCCC2)cc1 [4'-n-Decyloxy-3-piperidino-propiophenone . HCl]
IC50 [1]: < 125 µM

CCCCCCCCOc1ccc(C(=O)CCN2CCCCC2)cc1 [4'-n-Octyloxy-3-piperidino-propiophenone . HCl]
IC50 [1]: < 125 µM

COc1ccc(C(=O)CCN2CCCCC2)cc1 [4-Methoxy-3-piperidino propiophenone . HCl]
IC50 [1]: 125 µM

CCCCOc1ccc(C(=O)CCN2CCCCC2)cc1 [Dyclonine . HCl, 4-n-butoxy-β-(1-piperidyl)-propiophenone hydrochloride]
IC50 [1]: 125 µM
IC50 [2, 17]: ≤ 1000 µM
killing at 500 µM ([2]; read-out: inactivation of VSV): > 99%
IC50 [3, 17]: ≤ 1000 µM
killing at 500 µM ([3]; read-out: inactivation of HSV): > 90%
IC50 [4]: ≤ 1000 µM
IC50 [5, 17]: ≤ 1000 µM
killing at 500 µM ([5]; read-out: inactivation of influenza virus): ~80%
IC50 [6]: ≤ 1000 µM
percent inactivated [7]: less than 50%
percent inactivated [8]: less than 50%
IC50 [9]: ≤ 2000 µM
Candida (yeast) infection [10]: a Candida (yeast) infection developed
detrimental adverse reactions [11]: No detrimental adverse reactions were observed
hyperkeratosis [11]: mild hyperkeratosis noted in some of the animals
acute LD50 ([12]; intraperitoneal injection): 52.8 mg/kg
acute LD50 ([12]; intravenous): 19.5 mg/kg
IC99 [13]: < 1000 µM
IC99 [14]: < 1000 µM
sites with herpes lesions ([15]; 48 hours after inoculation, placebo 88 percent): 31% of the sites
sites with herpes lesions ([15]; by 72 hours): 7% of the sites
hyperkeratosis [16]: hyperkeratosis was noted in all the animals

CCCCOc1cc(C(=O)OCCN(CC)CC)ccc1N [benoxinate . HCl]
IC50 [1]: > 2000 µM

CCOC(=O)c1ccc(N)cc1 [benzocaine]
IC50 [1]: > 2000 µM

CCCCOc1cc(C(=O)NCCN(CC)CC)c2ccccc2n1 [dibucaine . HCl]
IC50 [1]: 800 µM

CCN(CC)CC(=O)Nc1c(C)cccc1C [lidocaine . HCl]
IC50 [1]: > 2000 µM

CCOc1ccc(N=C(C)Nc2ccc(OCC)cc2)cc1 [phenacaine . HCl]
IC50 [1]: > 2000 µM

CCCCOc1ccc(OCCCN2CCOCC2)cc1 [pramoxine . HCl]
IC50 [1]: 675 µM

CCN(CC)CCOC(=O)c1ccc(N)cc1 [procaine . HCl]
IC50 [1]: > 2000 µM

CCCOc1ccc(C(=O)OCCN(CC)CC)cc1N [proparacaine . HCl]
IC50 [1]: > 2000 µM

CCCCNc1ccc(C(=O)OCCN(C)C)cc1 [tetracaine . HCl]
IC50 [1]: > 2000 µM
